Measurements: PubChem BioAssay AID2060496 (Molecular Pharmacology Branch, DTP, NCI, 2025)

Test system: 276233-004-R-J1-PDC complex spheroid viability
Assay: Anticancer human tumor 276233-004-R-J1-PDC patient-derived colon adenocarcinoma cell line growth inhibition [GQUAD]
Conditions: for IC50: curve of first compound; for viability, T/C: stronger effect = lower value
How it was run: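 Tumor cells were grown as complex spheroids with HUVEC endothelial cells and mesenchymal stem cells as stroma. G-quadruplex stabilizers were combined with targeted agents over half-log dilutions from near the clinical Cmax, or from 10 microM.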

[1] = second compound 0.0316 µM, first compound 0.000999 µM
[2] = second compound 0.0316 µM, first compound 0.00316 µM
[3] = second compound 0.0316 µM, first compound 0.00999 µM
[4] = second compound 0.0316 µM, first compound 0.0316 µM
[5] = second compound 0.0316 µM, first compound 0.0999 µM
[6] = second compound 0.0316 µM, first compound 0.316 µM
[7] = second compound 0.1 µM, first compound 0.000999 µM
[8] = second compound 0.1 µM, first compound 0.00316 µM
[9] = second compound 0.1 µM, first compound 0.00999 µM
[10] = second compound 0.1 µM, first compound 0.0316 µM
[11] = second compound 0.1 µM, first compound 0.0999 µM
[12] = second compound 0.1 µM, first compound 0.316 µM
[13] = second compound 0.316 µM, first compound 0.000999 µM
[14] = second compound 0.316 µM, first compound 0.00316 µM
[15] = second compound 0.316 µM, first compound 0.00999 µM
[16] = second compound 0.316 µM, first compound 0.0316 µM
[17] = second compound 0.316 µM, first compound 0.0999 µM
[18] = second compound 0.316 µM, first compound 0.316 µM
[19] = second compound 1 µM, first compound 0.000999 µM
[20] = second compound 1 µM, first compound 0.00316 µM
[21] = second compound 1 µM, first compound 0.00999 µM
[22] = second compound 1 µM, first compound 0.0316 µM
[23] = second compound 1 µM, first compound 0.0999 µM
[24] = second compound 1 µM, first compound 0.316 µM
[25] = second compound 3.16 µM, first compound 0.000999 µM
[26] = second compound 3.16 µM, first compound 0.00316 µM
[27] = second compound 3.16 µM, first compound 0.00999 µM
[28] = second compound 3.16 µM, first compound 0.0316 µM
[29] = second compound 3.16 µM, first compound 0.0999 µM
[30] = second compound 3.16 µM, first compound 0.316 µM
[31] = second compound 10 µM, first compound 0.000999 µM
[32] = second compound 10 µM, first compound 0.00316 µM
[33] = second compound 10 µM, first compound 0.00999 µM
[34] = second compound 10 µM, first compound 0.0316 µM
[35] = second compound 10 µM, first compound 0.0999 µM
[36] = second compound 10 µM, first compound 0.316 µM
[37] = second compound 0.0316 µM, first compound 0.1 µM
[38] = second compound 0.0316 µM, first compound 1 µM
[39] = second compound 0.0316 µM, first compound 3.16 µM
[40] = second compound 0.0316 µM, first compound 10 µM
[41] = second compound 0.1 µM, first compound 0.1 µM
[42] = second compound 0.1 µM, first compound 1 µM
[43] = second compound 0.1 µM, first compound 3.16 µM
[44] = second compound 0.1 µM, first compound 10 µM
[45] = second compound 0.316 µM, first compound 0.1 µM
[46] = second compound 0.316 µM, first compound 1 µM
[47] = second compound 0.316 µM, first compound 3.16 µM
[48] = second compound 0.316 µM, first compound 10 µM
[49] = second compound 1 µM, first compound 0.1 µM
[50] = second compound 1 µM, first compound 1 µM
[51] = second compound 1 µM, first compound 3.16 µM
[52] = second compound 1 µM, first compound 10 µM
[53] = second compound 3.16 µM, first compound 0.1 µM
[54] = second compound 3.16 µM, first compound 1 µM
[55] = second compound 3.16 µM, first compound 3.16 µM
[56] = second compound 3.16 µM, first compound 10 µM
[57] = second compound 10 µM, first compound 0.1 µM
[58] = second compound 10 µM, first compound 1 µM
[59] = second compound 10 µM, first compound 3.16 µM
[60] = second compound 10 µM, first compound 10 µM
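Also: spheroids exposed to drugs for seven days.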
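For viability, T/C in this document: 100% = DMSO vehicle control viability.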

Work on `Cc1[nH]c2ccccc2c1CCNCc1ccc(/C=C/C(=O)NO)cc1` + CN(C)c1ccc(Nc2c3ccc(NC(=O)CCN4CCCC4)cc3nc3cc(NC(=O)CCN4CCCC4)ccc23)cc1 yielded an IC50 (second compound 0.0316 µM) of 178 nM, an IC50 (second compound 0.1 µM) of 169 nM and an IC50 (second compound 0.316 µM) of 166 nM. For the same compound, the IC50 (second compound 1 µM) was 47.7 nM, the IC50 (second compound 3.16 µM) was under 0.999 nM and the IC50 (second compound 10 µM) was under 0.999 nM. For the same compound, the viability, T/C [1] was 99.1%, the viability, T/C [2] was 79% and the viability, T/C [3] was 80.2%. It also gave a viability, T/C [4] of 84%, a viability, T/C [5] of 77.5% and a viability, T/C [6] of 23.2%. For the same compound, the viability, T/C [7] was 87.7%, the viability, T/C [8] was 90.7% and the viability, T/C [9] was 60.1%. For the same compound, the viability, T/C [10] was 71.3%, the viability, T/C [11] was 79% and the viability, T/C [12] was 17.2%. It also gave a viability, T/C [13] of 57.8%, a viability, T/C [14] of 78.7% and a viability, T/C [15] of 59.6%. It also gave a viability, T/C [16] of 50%, a viability, T/C [17] of 85% and a viability, T/C [18] of 29.6%. It also gave a viability, T/C [19] of 58.2%, a viability, T/C [20] of 54.2% and a viability, T/C [21] of 47.9%. For the same compound, the viability, T/C [22] was 64.3%, the viability, T/C [23] was 38.9% and the viability, T/C [24] was 21.8%. For the same compound, the viability, T/C [25] was 45.3%, the viability, T/C [26] was 47.9% and the viability, T/C [27] was 42.6%. For the same compound, the viability, T/C [28] was 40.3%, the viability, T/C [29] was 28.1% and the viability, T/C [30] was 8.05%. The viability, T/C [31] was 29.1%, the viability, T/C [32] was 39.6% and the viability, T/C [33] was 38.8%. It also gave a viability, T/C [34] of 29.3%, a viability, T/C [35] of 34% and a viability, T/C [36] of 3.25%.
Work on `CC1COCCN1c1cc(-c2ccnn2C)c2ccnc(-c3ccn[nH]3)c2n1` (stereo not drawn) + Cc1cnc(CNC(=O)c2c(=O)c3ccc(N4CCCN(C)CC4)nc3n3c2sc2ccccc23)cn1 yielded an IC50 (second compound 0.0316 µM) of over 10000 nM, an IC50 (second compound 0.1 µM) of over 10000 nM and an IC50 (second compound 0.316 µM) of 3700 nM. The IC50 (second compound 1 µM) was 4440 nM, the IC50 (second compound 3.16 µM) was 3320 nM and the IC50 (second compound 10 µM) was 1070 nM. For the same compound, the viability, T/C [4] was 99.5%, the viability, T/C [37] was 57.5% and the viability, T/C [6] was 78.7%. For the same compound, the viability, T/C [38] was 56%, the viability, T/C [39] was 63.2% and the viability, T/C [40] was 42.5%. The viability, T/C [10] was 79.6%, the viability, T/C [41] was 86.5% and the viability, T/C [12] was 63.2%. The viability, T/C [42] was 67.2%, the viability, T/C [43] was 56.6% and the viability, T/C [44] was 55.1%. The viability, T/C [16] was 73.1%, the viability, T/C [45] was 67.1% and the viability, T/C [18] was 65.9%. It also gave a viability, T/C [46] of 58.9%, a viability, T/C [47] of 51.3% and a viability, T/C [48] of 41.8%. The viability, T/C [22] was 68.9%, the viability, T/C [49] was 64.7% and the viability, T/C [24] was 67.4%. It also gave a viability, T/C [50] of 58.4%, a viability, T/C [51] of 52.3% and a viability, T/C [52] of 43.5%. For the same compound, the viability, T/C [28] was 63.1%, the viability, T/C [53] was 57.3% and the viability, T/C [30] was 62%. It also gave a viability, T/C [54] of 55.8%, a viability, T/C [55] of 49.7% and a viability, T/C [56] of 41.1%. For the same compound, the viability, T/C [34] was 53.4%, the viability, T/C [57] was 50.6% and the viability, T/C [36] was 51%. The viability, T/C [58] was 47.2%, the viability, T/C [59] was 49.2% and the viability, T/C [60] was 38.5%.
Compound `Cn1ncnc1[C@H]1c2n[nH]c(=O)c3cc(F)cc(c23)N[C@@H]1c1ccc(F)cc1` + Cc1cnc(CNC(=O)c2c(=O)c3ccc(N4CCCN(C)CC4)nc3n3c2sc2ccccc23)cn1 has an IC50 (second compound 0.0316 µM) of over 316 nM, an IC50 (second compound 0.1 µM) of over 316 nM and an IC50 (second compound 0.316 µM) of over 316 nM. The IC50 (second compound 1 µM) was over 316 nM, the IC50 (second compound 3.16 µM) was over 316 nM and the IC50 (second compound 10 µM) was over 316 nM. For the same compound, the viability, T/C [1] was 94.8%, the viability, T/C [2] was 72.2% and the viability, T/C [3] was 79.9%. For the same compound, the viability, T/C [4] was 82.6%, the viability, T/C [5] was 82.9% and the viability, T/C [6] was 83.8%. The viability, T/C [7] was 92.2%, the viability, T/C [8] was 85.1% and the viability, T/C [9] was 73%. For the same compound, the viability, T/C [10] was 78.3%, the viability, T/C [11] was 89.2% and the viability, T/C [12] was 87.3%. The viability, T/C [13] was 78.6%, the viability, T/C [14] was 91.9% and the viability, T/C [15] was 86.4%. It also gave a viability, T/C [16] of 82.8%, a viability, T/C [17] of 80.8% and a viability, T/C [18] of 78.2%. It also gave a viability, T/C [19] of 70.3%, a viability, T/C [20] of 65.9% and a viability, T/C [21] of 80.1%. It also gave a viability, T/C [22] of 74.4%, a viability, T/C [23] of 88.5% and a viability, T/C [24] of 69.2%. For the same compound, the viability, T/C [25] was 69.5%, the viability, T/C [26] was 71.5% and the viability, T/C [27] was 61.2%. It also gave a viability, T/C [28] of 67.5%, a viability, T/C [29] of 70.7% and a viability, T/C [30] of 62.8%. The viability, T/C [31] was 68.4%, the viability, T/C [32] was 59.1% and the viability, T/C [33] was 64.8%. The viability, T/C [34] was 71.8%, the viability, T/C [35] was 66.2% and the viability, T/C [36] was 63.5%.
Compound `COc1cccc2c1C(=O)c1c(O)c3c(c(O)c1C2=O)CC(O)(C(=O)CO)CC3OC1CC(N)C(O)C(C)O1` (stereo not drawn) + Cc1[nH]c2ccc(F)cc2c1-c1nc2c3cccnc3c3ncccc3c2[nH]1 has an IC50 (second compound 0.0316 µM) of 2480 nM, an IC50 (second compound 0.1 µM) of 4570 nM and an IC50 (second compound 0.316 µM) of 3270 nM. The IC50 (second compound 1 µM) was 3600 nM, the IC50 (second compound 3.16 µM) was 415 nM and the IC50 (second compound 10 µM) was under 31.6 nM. For the same compound, the viability, T/C [4] was 79.4%, the viability, T/C [37] was 79.9% and the viability, T/C [6] was 108%. The viability, T/C [38] was 64.9%, the viability, T/C [39] was 53% and the viability, T/C [40] was 39%. It also gave a viability, T/C [10] of 82.6%, a viability, T/C [41] of 96.3% and a viability, T/C [12] of 75.3%. For the same compound, the viability, T/C [42] was 89.1%, the viability, T/C [43] was 54.2% and the viability, T/C [44] was 40.9%. It also gave a viability, T/C [16] of 82.6%, a viability, T/C [45] of 82.6% and a viability, T/C [18] of 81.3%. For the same compound, the viability, T/C [46] was 77.2%, the viability, T/C [47] was 50.5% and the viability, T/C [48] was 34.2%. The viability, T/C [22] was 57.2%, the viability, T/C [49] was 78.3% and the viability, T/C [24] was 70.1%. It also gave a viability, T/C [50] of 70.9%, a viability, T/C [51] of 52.1% and a viability, T/C [52] of 33.8%. The viability, T/C [28] was 50.7%, the viability, T/C [53] was 63.5% and the viability, T/C [30] was 52.3%. The viability, T/C [54] was 41.4%, the viability, T/C [55] was 43.3% and the viability, T/C [56] was 35.7%. It also gave a viability, T/C [34] of 50%, a viability, T/C [57] of 44.4% and a viability, T/C [36] of 49.1%. The viability, T/C [58] was 47.6%, the viability, T/C [59] was 39.7% and the viability, T/C [60] was 27.6%.
